Converted amounts (≈) assume the structure as drawn.
Legend:
[1] = test system: M. marinum-tdTomato yolk-infected zebrafish embryos; conditions: in vivo
[2] = test system: M. tuberculosis H37Rv; experiment: microbe, parasite or virus in culture; assay type: cell-based; conditions: Mycobacterium tuberculosis, read-out: MIC90 Mtb in vitro; for IC90: 144 h
[3] = test system: Mtb-infected THP-1 macrophages; experiment: microbe, parasite or virus in culture; assay type: cell-based, Mycobacterium tuberculosis; conditions: for MIC50 / IC50: Mycobacterium tuberculosis, read-out: MIC50 Mtb ex vivo; for IC50: THP-1, 96 h
[4] = test system: M. marinum M^USA; experiment: microbe, parasite or virus in culture; assay type: cell-based; conditions: Mycobacterium marinum, read-out: MIC90 Mmar in vitro

For CC(C)=CCC/C(C)=C/CNCCNC1C2CC3CC(C2)CC1C3 (stereo not drawn) [SQ109], which “Bacterial load (integrated red fluorescence) in infected embryos vs DMSO” value (“Bacterial load … vs DMSO” for short) [1] is on record?
Its value is “significant reduction of the bacterial signal”.

How did the MIC90 [2] turn out when CC12CC3CC(C)(C1)CC(C(=O)Nc1nc4ccccc4s1)(C3)C2 [TBA8] was run?
Its MIC90 is 15.8 ± 7.5 µM (≈ 5.38 µg/mL).

And the MIC50 [3]?
Its MIC50 is 6.9 ± 8.7 µM (≈ 2.35 µg/mL).

COc1ccc(Cc2nn3c(-c4ccccc4)nnc3s2)cc1 [TBA29] was tested. Which MIC90 [2] did it give?
Its MIC90 is 3.6 ± 0.9 µM (≈ 1.16 µg/mL).

And the MIC50 [3]?
Its MIC50 is 6.1 ± 4 µM (≈ 1.97 µg/mL).

What does the source list for CC(C)C(=O)Nc1ccc(C(=O)Oc2ccccc2)c(O)c1 [TBA32]?
MIC90 [2]: 2 ± 0.5 µM (≈ 0.599 µg/mL); MIC50 [3]: 9.6 ± 16.6 µM (≈ 2.87 µg/mL)

Which MIC90 [2] does the source give for O=C(Nc1ccc(Cl)cc1)NC1CC2CCC1C2 (stereo not drawn) [TBA37] here?
The MIC90 was 13.6 ± 4.3 µM (≈ 3.6 µg/mL).

And the MIC50 [3]?
The MIC50 was 5.5 ± 3.6 µM (≈ 1.46 µg/mL).

What does the source list for Cc1ccc(-c2nnc3sc(Cc4ccccc4)nn23)cc1 [TBA38]?
MIC90 [2]: 9.9 ± 1.9 µM (≈ 3.03 µg/mL); MIC50 [3]: 5.6 ± 3.4 µM (≈ 1.72 µg/mL)

Which IC90 [2] does the source give for Cc1ccc(NC(=O)C23CC4CC(CC2C4)C3)cc1 [TBA52] here?
The IC90 was 9.6 ± 5.3 µM.

What about the IC50 [3] of the same compound?
The IC50 was 4.2 ± 6 µM.

What does the source list for COc1cccc(OCCNC(=O)c2cc([N+](=O)[O-])cc([N+](=O)[O-])c2)c1 [TBA57]?
MIC90 [2]: 1.7 ± 3.1 µM (≈ 0.614 µg/mL); MIC50 [3]: 1.6 ± 0.7 µM (≈ 0.578 µg/mL)

Which MIC90 [2] does the source give for O=C(OCC(=O)c1c[nH]c2ccccc12)c1ccc([N+](=O)[O-])s1 [TBA61] here?
The MIC90 was 2.2 ± 0.2 µM (≈ 0.727 µg/mL).

What about the “Intracellular activity (bacterial viability, macrophage protection)” value [3] of the same compound?
The value was “did not show activity”.

And the MIC50 [3]?
The MIC50 was greater than 30 µM.

What does the source list for COc1ccc(CNC(=O)c2c(C)nc3ccccn23)cc1 [TBA117]?
MIC90 [2]: 4 ± 1.4 µM (≈ 1.18 µg/mL); MIC50 [3]: 0.4 ± 0.1 µM (≈ 0.118 µg/mL)

Which results are given for Cc1nc2ccccn2c1C(=O)NCc1ccc2c(c1)OCO2 [TBA120]?
MIC90 [2]: 5.9 ± 2.6 µM (≈ 1.83 µg/mL); MIC50 [3]: 0.5 ± 0.2 µM (≈ 0.155 µg/mL)

What does the source list for CC(C)(C)c1ccc(Cn2cnc([N+](=O)[O-])n2)cc1 [TBA139]?
IC90 [2]: 11.8 ± 12.4 µM; IC50 [3]: 4.6 ± 7.1 µM

What does the source list for O=C(Nc1ccc(F)cc1)NC1CCCCCCC1 [TBA145]?
MIC90 [2]: 19 ± 5.7 µM (≈ 5.02 µg/mL); MIC50 [3]: 8 ± 14.2 µM (≈ 2.11 µg/mL)

For O=c1c2ccccc2oc2nc3n(c(=O)c12)CCCS3 [TBA161-A, 3,4-dihydro-chromeno[2′,3′:4,5]pyrimido[2,1-b][1,3]thiazine-6,7-dione], which MIC90 [2] is on record?
Its MIC90 is 3.8 ± 3.1 µM (≈ 1.09 µg/mL).

And the MIC90 [4]?
The MIC90 was 2.8 ± 1.7 µM (≈ 0.802 µg/mL).

What about the MIC50 [3] of the same compound?
Its MIC50 is 1.1 ± 0.9 µM (≈ 0.315 µg/mL).

Which results are given for CCc1cccc2c(C(=O)COC(=O)c3ccc([N+](=O)[O-])s3)c[nH]c12 [TBA172]?
MIC90 [2]: 2.4 ± 0.4 µM (≈ 0.86 µg/mL); Intracellular activity (bacterial viability, macrophage protection) [3]: did not show activity; MIC50 [3]: > 30 µM

For COc1nc2ccc(Br)cc2cc1[C@@H](c1ccccc1)[C@@](O)(CCN(C)C)c1cccc2ccccc12 [bedaquiline], which “Bacterial load … vs DMSO” value [1] is on record?
Its value is “significant reduction of the bacterial signal”.

For C[C@]1(COc2ccc(N3CCC(Oc4ccc(OC(F)(F)F)cc4)CC3)cc2)Cn2cc([N+](=O)[O-])nc2O1 [delamanid], which “Bacterial load … vs DMSO” value [1] is on record?
The value was “significant reduction of the bacterial signal”.

Which “Bacterial load … vs DMSO” value [1] does the source give for CCc1cc(C(N)=S)ccn1 [ethionamide] here?
The value was “significant reduction of the bacterial signal”.

With O=c1nc(N2CCN(CC3CCCCC3)CC2)sc2c([N+](=O)[O-])cc(C(F)(F)F)cc12 [macozinone] as the compound, how does the “Bacterial load … vs DMSO” value [1] read?
The value was “significant reduction of the bacterial signal”.

How did the “Bacterial load … vs DMSO” value [1] turn out when O=[N+]([O-])c1cn2c(n1)OC[C@@H](OCc1ccc(OC(F)(F)F)cc1)C2 [pretonamid] was run?
Its value is “significant reduction of the bacterial signal”.

With CO[C@H]1/C=C/O[C@@]2(C)Oc3c(C)c(O)c4c(O)c(c(/C=N/N5CCN(C)CC5)c(O)c4c3C2=O)NC(=O)/C(C)=C\C=C\[C@H](C)[C@H](O)[C@@H](C)[C@@H](O)[C@@H](C)[C@H](OC(C)=O)[C@@H]1C [rifampicin] as the compound, how does the “Bacterial load … vs DMSO” value [1] read?
Its value is “significant reduction of the bacterial signal”.

For CC(=O)NC[C@H]1CN(c2ccc(N3CCSCC3)c(F)c2)C(=O)O1 [sutezolid], which “Bacterial load … vs DMSO” value [1] is on record?
Its value is “significant reduction of the bacterial signal”.

Source: PMC8713996, “An anti-tuberculosis compound screen using a zebrafish infection model identifies an aspartyl-tRNA synthetase inhibitor” (Disease Models & Mechanisms, 2021)
